This note sets out measurements from ChEMBL document CHEMBL4311972, “Discovery of a benzothiophene-flavonol halting miltefosine and antimonial drug resistance in Leishmania parasites through the application of medicinal chemistry, screening and genomics” (Eur J Med Chem, 2019).

Each structure is given as a SMILES string.

The nature of data set [1]: Toxicity in Syrian hamster infected with Leishmania infantum BCN150 promastigotes assessed as liver weight at 20 mg/kg/day, po for 10 days (reference value: 5.874 +/- 0.414 g). It counts as organism-based, Mesocricetus auratus. The note with it: in vivo, 240 h.
A short description of data set [2]: Chemical stability of compound in PBS assessed as decrease in absorbance at 20 uM at pH 8 measured after air bubbling by UV-vis spectrophotometry analysis. The format is physicochemical. The following applies: buffer, pH 8, 20 µM.

For `CCCCCCCCCCCCCCCCOP(=O)([O-])OCC[N+](C)(C)C` [MILTEFOSINE], the Activity in data set [1] came to 5.996 g.
Consider `COc1ccc2oc(-c3csc4ccccc34)c(O)c(=O)c2c1`, for which the Stability entry in data set [2] is listed as “Unstable”.
